Test system: plucked human hair follicles
Assay: ex vivo culture of plucked human hair
Format: cell-based
Settings: 0.25 mM; 5 days of exposure; no other growth factors
Protocol: Plucked human hair with evident presence of the bulb area were immersed immediately after collection in cell growth media. Some of the hair samples were exposed to with lipid-modified protein/MBCD complexes (loaded MBCD) from embryonic stem cell culture as described in Example 2 (referred to as active ingredient), or unloaded MBCD as control, at the same concentration of 0.25 mM of the cyclodextrin component. No other growth factors (e.g., EGF, KGF, etc) were used in the hair follicle cultures.

methyl-β-cyclodextrin [unloaded MBCD]
status of follicles in culture: underwent senescence and detached from the substrate

Reference: patent publication US12268770B2, “Use of cell membrane-bound signaling factors” (AiVita Biomedical, Inc., priority 2017, dated 2025)
